Data reported in paper PMC6315362, “Cytotoxic Potential of the Novel Horseshoe Crab Peptide Polyphemusin III” (Marine Drugs, 2018).
Where a SMILES comes first, the peptide text is derived from it. Bridges are numbered along the chain shown (N, C = ends).

How the values were obtained:
[1] = tested on: HL-60 cells; assay: Annexin V-FITC/propidium iodide double staining and flow cytometry; assay type: cell-based, human; settings: for double-stained cells, Q2-2 (AV+PI+, late apoptotic/necrotic): 4 h
Excerpt: To further investigate the effect of PM III on human cells, we performed annexin V-FITC/propidium iodide double staining with subsequent flow cytometric analysis. Annexin V-FITC binds to phosphatidylserine, which is exposed on the outer leaflet of the cellular plasma membrane at the initial stages of apoptosis, whereas propidium iodide (PI) preferentially stains nuclei of dead cells. Therefore, a combination of annexin V-FITC and PI assays allows differentiation between early apoptotic and late apoptotic/necrotic cell populations. PM III was used at two final concentrations of 2.5 and 5 μM. In order to elucidate the predominant mechanism of the PM III action, we applied a widely used caspase inhibitor, Z-VAD-FMK [23].
Cell death analysis with fluorescein isothiocyanate conjugated annexin V (annexin V-FITC)/propidium iodide double staining and dead cells counting with flow cytometry were performed 4 h after addition of polyphemusin III up to a final concentration of 2.5 or 5 μM. The Annexin V-FITC Apoptosis Detection Kit (BD Biosciences, Franklin Lakes, NJ, USA) was used according to the manufacturer’s protocol on a NovoCyte flow cytometer (ACEA Biosciences, San Diego, CA, USA). Each experiment was performed in triplicate. The apoptosis inducer camptothecin (Sigma-Aldrich, St. Louis, MO, USA) and the general caspase inhibitor, Z-VAD-FMK (BD Biosciences, Franklin Lakes, NJ, USA), were used. All flow cytometry experiments were performed twice.

[2] = tested on: Gram-positive and Gram-negative bacteria; assay: Antimicrobial assay, MIC summarised over the panel of strains; assay type: cell-based; settings: E. coli ML35p, K. pneumoniae (CI 287) and S. aureus 209P
Method: Bacterial test cultures were grown in the Mueller-Hinton (MH) medium at 37 °C to mid-log phase and then diluted with the 2 x MH medium supplemented with 1.8% NaCl. 50 µL of the bacterial suspension with a final cell concentration of 10^6 CFU/mL were added to aliquots of 50 µL of the peptide solutions and serially diluted with sterilized 0.1% bovine serum albumin in 96-well flat-bottom polystyrene microplates (Eppendorf, Hamburg, Germany). Bacterial cells were incubated for 24 h at 37 °C and 900 rpm on the plate thermoshaker (Biosan, Riga, Latvia). The minimum inhibitory concentrations (MIC) were determined as the lowest peptide concentration that prevented growth of a test microorganism observed as visible turbidity. The results were expressed as median values of three independent triplicated experiments. Assessment of antimicrobial activities of the recombinant PM III, other polyphemusins, and tachyplesins was conducted against Gram-negative (Escherichia coli ML-35p, Klebsiella pneumoniae (clinical isolate, CI 287), Pseudomonas aeruginosa PAO1) and Gram-positive (Staphylococcus aureus ATCC 29213, Staphylococcus aureus 209P, Bacillus subtilis B-886, Micrococcus luteus B-1314) bacteria.

[3] = tested on: HL-60 cells; assay: Lactate dehydrogenase (LDH)-release assay; assay type: cell-based, human; settings: HL-60, 1 h of incubation, 1.56–25 μM, RPMI serum-free medium; two independent series of triplicated experiments
Method: The loss of membrane integrity, detected by trypan blue exclusion assay and annexin V-FITC/propidium iodide double staining, was also evaluated by lactate dehydrogenase (LDH)-release. The cytosolic enzyme LDH is released upon cell lysis and therefore can be a marker of cell integrity. The percentage of LDH-leakage from cells enables evaluation of direct cell lysis.
The LDH-release assay (CytoTox 96 Non-Radioactive Cytotoxicity Assay; Promega Corporation, Madison, WI, USA) was performed according to the manufacturer’s protocol. Suspension HL-60 cells (4 × 10^4) were seeded into a 96-well plate in triplicate and incubated for 1 h with various concentrations of polyphemusin III at 100 μL per well in RPMI serum-free medium. Untreated cells served as a control for spontaneous LDH-release and cells treated with 1% Triton X-100 were used as a control for maximal LDH-release. Absorbance was measured at 490 nm using a microplate reader (Eppendorf, Hamburg, Germany). Percent LDH-release was calculated using the following Equation (2):[(experimental LDH-release − spontaneous LDH-release)/(maximal LDH-release − spontaneous LDH-release)] × 100(2)
The dose response curve shown is an average of two independent experiments.

**Q.** What does the source list for CC(C)[C@@H]1NC(=O)[C@H](CCCNC(=N)N)NC(=O)[C@H](Cc2ccccc2)NC(=O)[C@@H](NC(=O)CNC(=O)[C@H](CCCNC(=N)N)NC(=O)[C@@H](N)CCCNC(=N)N)CSSC[C@@H](C(=O)N[C@@H](CCCNC(=N)N)C(=O)O)NC(=O)[C@H](CCCNC(=N)N)NC(=O)[C@H](CCC(N)=O)NC(=O)[C@H](Cc2ccccc2)NC(=O)[C@@H]2CSSC[C@H](NC1=O)C(=O)N[C@@H](Cc1ccc(O)cc1)C(=O)N[C@@H](CCCNC(=N)N)C(=O)NCC(=O)N[C@@H](Cc1ccccc1)C(=O)N2 [PM III, polyphemusin III] (H-RRGCFRVCYRGFCFQRCR-OH; disulfide 4-17, 8-13 (inferred); N-terminus assumed)?
**A.** double-stained cells, Q2-2 (AV+PI+, late apoptotic/necrotic) ([1]; HL-60, 2.5 µM, 50 μM Z-VAD-FMK added): > 30%; double-stained cells, Q2-2 (AV+PI+, late apoptotic/necrotic) ([1]; HL-60, 2.5 µM, no Z-VAD-FMK): > 40%; double-stained cells, Q2-2 (AV+PI+, late apoptotic/necrotic) ([1]; HL-60, 5 µM, 50 μM Z-VAD-FMK added): > 70%; double-stained cells, Q2-2 (AV+PI+, late apoptotic/necrotic) ([1]; HL-60, 5 µM, no Z-VAD-FMK): > 80%; influence of the caspase inhibitor Z-VAD-FMK on the effect of the substance (annexin V-FITC/PI staining) ([1]; HL-60, 4 h of incubation, 50 μM Z-VAD-FMK): almost not affected; reduction in activity compared to PM I, TP I, and TP III [2]: 4 fold; LDH-release (cell lysis) [3]: concentration-dependent lysis
